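Method: 48-hour compound exposure of cells in 96-well plates, five concentrations, linear interpolation of endpoints. At the TGI there is no net growth.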
How the values were obtained:
Test in all cases: NCI-60 cell line screen, 48 h
COLO 205 colon = system: COLO 205 colon
HOP-62 NSCLC = system: HOP-62 NSCLC
HT29 colon = system: HT29 colon
LOX IMVI melanoma = system: LOX IMVI melanoma
MALME-3M melanoma = system: MALME-3M melanoma
MDA-N = system: MDA-N
NCI-H23 lung = system: NCI-H23 lung
RXF 393 renal = system: RXF 393 renal
SF-539 CNS = system: SF-539 CNS
SK-MEL-28 melanoma = system: SK-MEL-28 melanoma
UO-31 renal = system: UO-31 renal

Structure (SMILES) | TGI (COLO 205 colon) | TGI (HOP-62 NSCLC) | TGI (HT29 colon) | TGI (LOX IMVI melanoma) | TGI (MALME-3M melanoma) | TGI (MDA-N) | TGI (NCI-H23 lung) | TGI (RXF 393 renal) | TGI (SF-539 CNS) | TGI (SK-MEL-28 melanoma) | TGI (UO-31 renal)
COc1ccc2c(c1)CN1C(=N2)CSC1c1cccc(Br)c1 (stereo unspecified) | > 100 µM | > 100 µM | 72.3 µM | > 100 µM | > 100 µM | > 100 µM | 83.5 µM | 55.9 µM | > 100 µM | > 100 µM | > 100 µM
COC(=O)c1csc([C@@H](OC(=O)[C@H](C)[C@H](CCCC(C)(Cl)Cl)OC(=O)c2csc([C@H](O)CO)n2)C(C)C)n1 | 32.3 µM | 33.6 µM | 36.8 µM | 23.5 µM | 34.3 µM | 21.3 µM | 30.9 µM | 4.53 µM | 8.62 µM | 24.2 µM | 19.9 µM
C=CCCON(C(=O)OC(C)(C)C)c1ccccc1 | > 100 µM | > 100 µM | > 100 µM | > 100 µM | > 100 µM | > 100 µM | > 100 µM | > 100 µM | > 100 µM | > 100 µM | > 100 µM
CC(C)CCNC(=O)c1ccc(CNC(=O)/C=C/c2cccc(Oc3ccccc3)c2)cc1 | > 100 µM | 53.3 µM | > 100 µM | > 100 µM | > 100 µM | 38.3 µM | > 100 µM | 52 µM | > 100 µM | > 100 µM | > 100 µM
COc1cc2c(cc1OCCCCCCCCCCN1C(=O)c3cccc4cccc(c34)C1=O)N=C[C@@H]1CCCN1C2=O | 15.9 µM | > 100 µM | 29.3 µM | 4.99 µM | 34 µM | 30 µM | 22.4 µM | 10.1 µM | 3.21 µM | 33 µM | 28.5 µM
O=C1/C(=C\c2ccc([N+](=O)[O-])cc2)N(S(=O)(=O)c2ccccc2)c2ncccc21 | 56.8 µM | 46.2 µM | 35 µM | 47.5 µM | 33 µM | 45.3 µM | 42.1 µM | 37 µM | 55.5 µM | 41.8 µM | 38.2 µM
C=C(C)C1CCC(C(=O)O)CC1 (stereo unspecified) | > 100 µM | > 100 µM | > 100 µM | > 100 µM | > 100 µM | > 100 µM | > 100 µM | > 100 µM | > 100 µM | > 100 µM | > 100 µM
OC(CC1CCCCN1)c1ccc2c(c1)oc1ccccc12 (stereo unspecified) | 45.2 µM | > 100 µM | > 100 µM | > 100 µM | > 100 µM | > 100 µM | > 100 µM | > 100 µM | > 100 µM | > 100 µM | > 100 µM
O=C1CS(=O)(=O)C(c2cccc(Oc3ccccc3)c2)N1c1ccc(Cl)cc1 (stereo unspecified) | 35.5 µM | > 100 µM | > 100 µM | 29.1 µM | 73.2 µM | 53 µM | > 100 µM | 43 µM | 39.9 µM | > 100 µM | > 100 µM
CCOC(=O)CCC(NC(=O)c1ccc(Nc2nc3ccc(C(F)(F)F)cc3nc2-c2ccccc2)cc1)C(=O)OCC (stereo unspecified) | 29.7 µM | > 100 µM | > 100 µM | > 64.2 µM | 76.8 µM | 75.4 µM | > 100 µM | > 100 µM | > 100 µM | > 100 µM | > 87.2 µM
Cc1c(-c2ccccc2)cc(O)c2nc3ccccc3n12 | > 100 µM | > 100 µM | > 100 µM | > 100 µM | > 100 µM | > 100 µM | > 100 µM | > 100 µM | > 100 µM | > 100 µM | > 100 µM
O=c1[nH]c2cc(C(F)(F)F)ccc2nc1C(F)(F)F | > 100 µM | 76.7 µM | > 100 µM | > 100 µM | > 100 µM | > 100 µM | 94.2 µM | 58.2 µM | 94.6 µM | > 100 µM | > 100 µM
CS(=O)(=O)C(C#N)c1nc2ccccc2nc1Cl (stereo unspecified) | > 100 µM | > 100 µM | > 100 µM | > 100 µM | > 100 µM | > 100 µM | > 100 µM | > 100 µM | > 65.9 µM | > 100 µM | > 100 µM
C[C@@H](C(=O)O)N1C(c2ccco2)=C(/C(C=O)=C\c2ccco2)C(=O)/C1=C\c1ccco1 | > 100 µM | > 100 µM | > 100 µM | > 100 µM | > 100 µM | > 100 µM | > 100 µM | > 100 µM | > 100 µM | > 100 µM | > 100 µM
Cc1ccc(C(=O)N/N=C(\N=Nc2cccc([N+](=O)[O-])c2)c2ccc(N(CCC#N)CCC#N)cc2C)cc1 | 20.9 µM | 79.7 µM | > 100 µM | > 100 µM | 18.4 µM | > 78.4 µM | > 82.8 µM | 60.7 µM | 58.7 µM | > 86.3 µM | > 100 µM
COC(=O)[C@@H]1C=C[C@H](OC2OC(COC(C)=O)C(OC(C)=O)C(OC(C)=O)C2OC(C)=O)n2c(=O)n(-c3ccccc3)c(=O)n21 (stereo partly specified) | 3.38 µM | 28.1 µM | 3.64 µM | 3.09 µM | 4.07 µM | 7.41 µM | 14 µM | 4.12 µM | 8.21 µM | 5.59 µM | 5.25 µM
Cc1cc(C)nc(NS(=O)(=O)c2ccc(Nc3c4ccccc4nc4ccc(C(=O)Nc5ccc(S(N)(=O)=O)cc5)cc34)cc2)n1 | > 100 µM | > 100 µM | > 100 µM | > 100 µM | > 100 µM | > 100 µM | > 100 µM | > 100 µM | > 100 µM | > 100 µM | > 100 µM
CC(=O)C(C(c1ccccc1)N1CCOCC1)N1CCOCC1 (stereo unspecified) | > 100 µM | > 100 µM | > 100 µM | > 100 µM | > 100 µM | > 100 µM | > 100 µM | > 100 µM | > 100 µM | > 100 µM | > 100 µM

Structure (SMILES) | TGI (COLO 205 colon) | TGI (HOP-62 NSCLC) | TGI (HT29 colon) | TGI (LOX IMVI melanoma) | TGI (MALME-3M melanoma) | TGI (MDA-N) | TGI (NCI-H23 lung) | TGI (RXF 393 renal) | TGI (SF-539 CNS) | TGI (SK-MEL-28 melanoma) | TGI (UO-31 renal)
COc1cc2c(cc1O)c(O)cc1c3cc(OC)c(OC)cc3c[n+](C)c21 | > 100 µM | > 100 µM | > 61.4 µM | > 55.2 µM | > 100 µM | 35.7 µM | 29.5 µM | > 100 µM | > 100 µM | > 100 µM | > 100 µM
COC(=O)C1=C(OC(=O)/C(=C/c2ccccc2)c2ccc(Cl)cc2Cl)C(C(=O)OC)[C@@]2(O)[C@@H](C(=O)OC)[C@H](C)C[C@@H]1[C@@H]2C(=O)OC (stereo partly specified) | > 100 µM | > 100 µM | > 100 µM | > 100 µM | > 100 µM | > 100 µM | > 100 µM | > 100 µM | > 100 µM | > 100 µM | > 100 µM
COc1ccc(/C=C2\N=C(N3CCCCC3)NC2=O)cc1 | > 100 µM | > 100 µM | > 100 µM | > 100 µM | > 100 µM | > 100 µM | > 100 µM | > 100 µM | > 100 µM | > 100 µM | > 100 µM
Cc1ccc(C(=O)O)c(/C=C2\Cc3ccc(C)cc3C2=O)c1 | > 100 µM | > 100 µM | > 100 µM | > 100 µM | > 100 µM | > 100 µM | > 100 µM | > 100 µM | 49.3 µM | > 100 µM | > 100 µM
CS(=O)(=O)Nc1ccc2ccccc2c1-c1c(NS(C)(=O)=O)ccc2ccccc12 | > 25 µM | > 25 µM | > 25 µM | > 25 µM | > 25 µM | > 25 µM | > 25 µM | > 25 µM | > 25 µM | > 25 µM | > 25 µM
COc1ccc(-c2c(C(C)=O)c(-c3ccccc3)n(C3OC(CO)C(O)C(O)C3O)c(=S)c2C#N)cc1 (stereo unspecified) | > 100 µM | > 100 µM | > 100 µM | > 100 µM | > 100 µM | > 100 µM | > 100 µM | > 100 µM | > 100 µM | > 100 µM | > 100 µM
CC(=O)SCCC(NC(=S)Nc1ccccc1)P(=O)(Oc1ccccc1)Oc1ccccc1 (stereo unspecified) | > 100 µM | > 100 µM | > 100 µM | > 100 µM | > 100 µM | > 100 µM | > 100 µM | > 100 µM | > 100 µM | > 100 µM | > 100 µM
C#CCn1c(=O)c(I)cn(/C(=C/C(=O)OCC)C(=O)OCC)c1=O | 2.94 µM | 32.9 µM | 36.9 µM | > 48.5 µM | 4.27 µM | 9.41 µM | 45.5 µM | 12.2 µM | 12.3 µM | 26.2 µM | 2.86 µM
C=CC[C@]1(/C=N/O)CN(S(=O)(=O)CC[Si](C)(C)C)C[C@H]2CC=CC[C@H]21 | 32.6 µM | 39 µM | 30.8 µM | 40.4 µM | 40.4 µM | 42.8 µM | > 100 µM | 29.6 µM | 32.8 µM | 54.7 µM | > 100 µM
N#CSCC(Cl)=CCl (mixture of isomers) | > 100 µM | > 100 µM | > 100 µM | 71.7 µM | > 100 µM | > 100 µM | > 100 µM | > 100 µM | > 100 µM | > 100 µM | > 100 µM
Cc1n(CC(C)C)c2c([n+]1C)C(=O)c1ccccc1C2=O | 0.0575 µM | 0.76 µM | 1.03 µM | 0.867 µM | 0.28 µM | 0.314 µM | 0.107 µM | 6.19 µM | 0.532 µM | 2.98 µM | 3.55 µM
COc1ccc(CC2COc3cc(OC)cc(OC)c3C2=O)cc1 (stereo unspecified) | 31.1 µM | 97.1 µM | 40.4 µM | > 100 µM | 75.3 µM | > 100 µM | > 100 µM | > 100 µM | 37.3 µM | > 100 µM | > 100 µM
CCOC(=O)/C=C(\C(=O)OCC)n1cc(C)c(=O)n(Cc2cn(CCCCOC(C)=O)nn2)c1=O | 8.91 µM | 37.4 µM | 21.1 µM | 23.1 µM | 4.16 µM | 50.9 µM | 27.8 µM | 7.5 µM | 5.17 µM | 31.7 µM | 27.5 µM
COc1ccc2c(c1)/C(=C\c1c(Cl)[nH]c3cc(C)c(OC)cc13)C(=O)N2 | 5.69 µM | 23 µM | 7.27 µM | 8.45 µM | 19.2 µM | 2.13 µM | 2.9 µM | 7.67 µM | 1.24 µM | 29 µM | 19.2 µM
CC1(C)[C@@H]2CC[C@]1(C)[C@H](OC(=O)CSC#N)C2 | > 100 µM | > 100 µM | > 100 µM | > 100 µM | > 100 µM | > 100 µM | > 100 µM | > 100 µM | 67.9 µM | > 100 µM | > 100 µM
O=C1NC(=S)N/C1=C\c1cccs1 | > 100 µM | > 100 µM | > 100 µM | > 100 µM | > 100 µM | > 100 µM | > 100 µM | > 100 µM | > 100 µM | > 100 µM | > 100 µM
Nn1c(C23CC4CC(CC(C4)C2)C3)n[nH]c1=S | > 100 µM | > 100 µM | > 100 µM | > 100 µM | > 100 µM | > 100 µM | > 100 µM | > 100 µM | > 100 µM | > 100 µM | > 100 µM
OC(CNc1ccccn1)c1ccccc1 (stereo unspecified) | > 100 µM | > 100 µM | > 100 µM | > 100 µM | > 100 µM | > 100 µM | > 100 µM | > 100 µM | > 100 µM | > 100 µM | > 100 µM
